Measurements: patent publication US9908877B2, “Imidazo[1,5-a]pyridinium ion fluorophores, and methods of making and using the same” (Indiana University Research and Technology Corporation, priority 2013, dated 2018)

Experiments:
[1] = pKa from fluorescence intensity versus pH; assay type: physicochemical; details: non-linear regression of fluorescence intensity versus pH, buffered water pH 2.5 to 7.5
Experimental: Method for Determining pKa
A pKa value is determined by plotting fluorescence intensity (Imax) at emission maxima against pH and fitting the result to the non-linear expression in equation (1) (i.e., eq.(1)). In eq (1), a and b are the molar coefficient of the acid (HA) and base (A^−) form, respectively, and c is the combined overall concentration of the acid and base form. i.e., c=[HA]+[A^−].

[2] = Fluorescence response to pH in buffered water; assay type: physicochemical; details: buffered water, 298 K, pH from 7.5 to 2.5
Experimental: Stock solutions of each compound (having a concentration of from 1-5 mM) were prepared by dissolving the corresponding salts of the compounds in methanol or 1V, N-dimethylformamide, and then diluting the same with acetonitrile or buffered water having a pH of from 2.5 to 7.5 derived from 0.2 M […] and 0.1 M citric acid, to achieve a sample solution having a compound concentration of 30.0 μM.
The emission spectrum for each sample was obtained. The results are illustrated by the plot in FIG. 2A.
The emission spectrum for each sample was obtained. […] The results are illustrated in the plot of FIG. 2B.
The fluorescence emission spectrum of Compound 8 in water having a pH of 2.5 was also obtained and is illustrated by the curved line with a peak at 360 nm in FIG. 5B.
Compounds 10, 11, and 12 were each individually added, at a concentration of 30 μM, to water having a pH=7.5 and the emission spectra of each were obtained. […] As the pH was decreased from 7.5 to 2.5 in 0.5 pH unit increments, fluorescence emission at 600 nm remained relatively nonexistent and the intensity of the fluorescence emission at 400 nm increased in correlation to the decrease in pH. FIG. 8A illustrates the emission properties of Compound 12.

pKa [1]: 5
λem,max of the emission that decreases as pH decreases [2]: 580 nm
λem,max of the emission that increases as pH decreases [2]: 400 nm
SMILES: CCN(CC)c1ccc(-c2c3cccc[n+]3cn2-c2ccc(OC)cc2)cc1.[Cl-] [Compound 6, 1-(4-(diethylamino)phenyl)-2-(4-methoxyphenyl)-2H-imidazo[1,5-a]pyridin-4-ium chloride]
